Experimental data: patent US11857531B2, “Combination mast cell inhibition for treatment of BPH/LUTS” (Northwestern University, priority 2020, dated 2024)
Structures can show the parent of a compound that is named as a salt.

Test system: IL-4, IL-13, STAT-6, IFNγ, IL-17a, IL-10 mRNA in prostates of CP1 infected mice
Assay: qPCR for cytokine transcripts in prostates
Assay type: in vivo, C57BL/6 mice
Conditions: late, day 35 post CP1 infection; single drug or combination; CrS 0.5 mg/kg, CeHCl 2.5 mg/kg i.p. daily 10 days
Procedure: The prostates were harvested from mice after euthanizing as described previously (32). Depending on the experimental design, each prostate sample (separated by lobes) were either fixed in 10% formalin or frozen at −80° C. in TRIzol™ reagent (Life Technologies Corporation, Grand Island, NY, USA), or frozen at −80° C. in 1×RIPA (Santa Cruz Biotechnology, Dallas, TX, USA) containing complete-EDTA protease inhibitor cocktail and phosSTOP phosphatase inhibitor (Millipore-Sigma, Burlington, MA, USA), or processed for tissue digestion for flow cytometry. Formalin samples were further processed and embedded in paraffin. The formalin-fixed paraffin-embedded (FFPE) samples were then sectioned (5 μm sections) and mounted on glass slides for staining. […] Following voiding behavior testing on days 14 or 35 [“early treatment” or “late treatment” groups respectively], mice were euthanized and tissues were prepared as described above. Total RNA was isolated using TRIzol™ reagent (Life Technologies Corporation, Grand Island, NY, USA), and cDNA synthesis, starting with 1 μg of total RNA, was performed with random hexamers using High-Capacity cDNA Reverse Transcription Kit (Life Technologies Corporation, Grand Island, NY, USA) per the manufacturer's instructions. Primers for quantitative PCR (qPCR) were created for the RNA of interest using the NIH online primer blast tool. Reverse Transcription-Quantitative Polymerase Chain Reaction (RT-qPCR) reactions were performed using SsoAdvanced™ universal SYBR® green (Bio-Rad, Hercules, CA, USA) and run on the CFX Connect (Bio-Rad, Hercules, CA, USA) platform. A full table of primer sequences is included in Table 1. The data were analyzed by the 2^−ΔΔCT method (38), and normalized to GAPDH as the housekeeping gene. The data are represented as fold change normalized to the average expression of the gene of interest in their respective control group.

| SMILES | IL-4 gene expression in prostates of CP1-infected mice (FIG. 12) | IL-13 gene expression in prostates of CP1-infected mice (FIG. 12) |
| --- | --- | --- |
| O=C(O)COCCN1CCN(C(c2ccccc2)c2ccc(Cl)cc2)CC1 (stereo not shown) [CeHCl, cetirizine di-hydrochloride] | reduced the gene expression levels of IL-4 and IL-13 to a modest but non-significant levels | reduced the gene expression levels of IL-4 and IL-13 to a modest but non-significant levels |
| O=C([O-])c1cc(=O)c2c(OCC(O)COc3cccc4oc(C(=O)[O-])cc(=O)c34)cccc2o1.[Na+].[Na+] [CrS, cromolyn sodium] | reduced the gene expression levels of IL-4 and IL-13 to negligible levels | reduced the gene expression levels of IL-4 and IL-13 to negligible levels |
